Results on two compounds are retold here after ChEMBL document CHEMBL3580619, “The antimalarial drug atovaquone binds to saposin B with comparable affinity to coenzyme Q10” (Medchemcomm, 2014).

Structures are written as SMILES.

Data set [1] can be described thus: Inhibition of coenzyme Q10 binding to cytochrome bc1 complex (unknown origin).
Data set [2] deals with T1, Albumin (Homo sapiens, UniProt P02768). Kind of data set: Ratio of Ka for human serum albumin by ITC method to Ka for human serum albumin by CD spectroscopy. Type of data set: ADME.
In data set [3] the target is T2, Prosaposin (Homo sapiens, UniProt P07602).
T2 sequence (P07602 whole entry): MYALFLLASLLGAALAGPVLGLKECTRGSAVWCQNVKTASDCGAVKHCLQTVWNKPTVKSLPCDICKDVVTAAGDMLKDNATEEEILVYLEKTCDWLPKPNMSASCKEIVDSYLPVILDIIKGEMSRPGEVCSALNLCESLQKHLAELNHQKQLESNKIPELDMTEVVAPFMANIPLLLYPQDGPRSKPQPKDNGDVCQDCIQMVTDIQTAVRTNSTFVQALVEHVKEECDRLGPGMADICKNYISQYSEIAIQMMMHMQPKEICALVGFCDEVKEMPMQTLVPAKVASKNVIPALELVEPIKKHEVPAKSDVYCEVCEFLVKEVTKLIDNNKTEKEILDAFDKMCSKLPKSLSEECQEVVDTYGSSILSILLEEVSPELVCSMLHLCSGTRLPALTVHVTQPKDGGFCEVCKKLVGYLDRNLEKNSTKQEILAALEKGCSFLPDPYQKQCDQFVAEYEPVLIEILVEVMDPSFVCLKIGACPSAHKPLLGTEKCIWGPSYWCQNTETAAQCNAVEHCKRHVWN
Briefly: Binding affinity to human saposin B expressed in Escherichia coli BL21 Gold (DE3) at 150 uM using 15 to 20 uM sapB and 50 mM MES and 10% DMF at pH 5.5 and 25 degC by ITC method. To be noted: pH 5.5, 150 µM. Type of data set: ADME. (In ITC the heat of successive injections is recorded.)

Data set [4] is described as follows: Protein binding in human plasma. To be noted: read-out: PPB. Type of data set: ADME, cell-free.
The target in data set [5] is T1, Albumin. Kind of data set: Binding affinity to human serum albumin by CD spectroscopy. Type of data set: ADME. To be noted: isolated protein.
Data set [6] addresses T1, Albumin. Briefly: Binding affinity to human serum albumin at 150 uM using 20 uM HSA and 20 mM phosphate and 30% DMF at pH 7.4 and 25 degC by ITC method. Type of data set: ADME. To be noted: isolated protein, pH 7.4, 150 µM.
In data set [7] the target is T2, Prosaposin. Kind of data set: Binding affinity to human saposin B expressed in Escherichia coli BL21 Gold (DE3) at 150 um using 20 uM SapB and 20 mM phosphate and 30% DMF at pH 7.4 and 25 degC by ITC method. Type of data set: ADME. To be noted: pH 7.4, 150 µM.
Data set [8] deals with T1, Albumin. Kind of data set: Binding affinity to human serum albumin in Ringer buffer and 2 to 7% v/v ethanol at pH 7.4 and 37 degC by CD spectroscopy. Type of data set: ADME. To be noted: isolated protein.
Data set [9] deals with T1, Albumin. Kind of data set: Binding affinity to human serum albumin at 845 uM using 33.8 uM HSA and 14 mM phosphate and 30% DMF at pH 7.4 and 25 degC by fluorescence spectroscopy. The settings on record: isolated protein, pH 7.4, 845 µM. Type of data set: ADME.
Data set [10] addresses T2, Prosaposin. Kind of data set: Binding affinity to human saposin B expressed in Escherichia coli BL21 Gold (DE3) at 154 uM using 25 to 27 uM sapB and 50 mM MES and 50% DMF at pH 5.5 and 25 degC by ITC method. Type of data set: ADME. To be noted: pH 5.5, 154 µM.
In data set [11] the target is T2, Prosaposin. Briefly: Binding affinity to human saposin B expressed in Escherichia coli BL21 Gold (DE3) at 120 uM using 15 uM sapB and 50 mM MES and 4% THF at pH 5.5 and 25 degC by ITC method. Type of data set: ADME. The settings on record: pH 5.5, 120 µM.

T1 sequence (P02768 whole entry): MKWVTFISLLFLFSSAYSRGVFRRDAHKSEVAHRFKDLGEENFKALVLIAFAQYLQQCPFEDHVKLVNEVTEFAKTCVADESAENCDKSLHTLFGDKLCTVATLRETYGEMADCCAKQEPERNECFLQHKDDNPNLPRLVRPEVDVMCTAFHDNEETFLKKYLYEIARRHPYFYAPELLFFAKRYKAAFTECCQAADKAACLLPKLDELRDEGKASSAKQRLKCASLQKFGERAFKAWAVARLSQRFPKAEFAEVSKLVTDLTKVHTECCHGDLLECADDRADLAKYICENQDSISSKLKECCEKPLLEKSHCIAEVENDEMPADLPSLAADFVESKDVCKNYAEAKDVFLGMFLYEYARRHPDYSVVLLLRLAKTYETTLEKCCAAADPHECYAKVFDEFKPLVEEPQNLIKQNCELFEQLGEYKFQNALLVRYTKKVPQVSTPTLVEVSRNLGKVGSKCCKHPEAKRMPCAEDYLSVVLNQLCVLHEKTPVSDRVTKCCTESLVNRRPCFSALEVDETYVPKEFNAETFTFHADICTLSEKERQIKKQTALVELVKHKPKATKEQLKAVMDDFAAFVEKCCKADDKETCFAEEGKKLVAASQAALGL

For the compound `O=C1C(O)=C([C@H]2CC[C@H](c3ccc(Cl)cc3)CC2)C(=O)c2ccccc21` [ATOVAQUONE], affinity in [1] was put at a Ki of 9 nM. Also, the Ratio at Albumin [2] stood at 10. Besides, the K at Prosaposin [3] was 1.11 ×10⁷ /M; at Albumin [6], 1.06 ×10⁵ /M; on Prosaposin [7], 8.02 ×10⁴ /M; at Albumin [8], 1 ×10⁶ /M. In addition, in [4], the fraction unbound was below 0.005. For the same compound, the Ka at Albumin [5] is reported as 2 ×10⁶ /M; at Albumin [9], 7.15 ×10⁴ /M.
For the compound `COC1=C(OC)C(=O)C(C/C=C(\C)CC/C=C(\C)CC/C=C(\C)CC/C=C(\C)CC/C=C(\C)CC/C=C(\C)CC/C=C(\C)CC/C=C(\C)CC/C=C(\C)CCC=C(C)C)=C(C)C1=O` [UBIDECARENONE], the K on Prosaposin [10] was found to be 1.7 ×10⁷ /M; on Prosaposin [11], 2.41 ×10⁷ /M.
